Article PMC8850433, “CRISPR-assisted rational flux-tuning and arrayed CRISPRi screening of an L-proline exporter for L-proline hyperproduction” (Nature Communications, 2022)

Molecular target: T1, Cgl2622 (Corynebacterium glutamicum, UniProt Q79VD1)
T1 construct: full-length membrane exporter, expressed from plasmid under IPTG-inducible Ptrc in cgl2622-deleted C. glutamicum
Type: cell-based
Conditions: intact C. glutamicum cells, CGXII medium, 20 g/L glucose, 3 mM Thr-Pro peptide, 30 °C; efflux

T1 sequence (Q79VD1 1-489): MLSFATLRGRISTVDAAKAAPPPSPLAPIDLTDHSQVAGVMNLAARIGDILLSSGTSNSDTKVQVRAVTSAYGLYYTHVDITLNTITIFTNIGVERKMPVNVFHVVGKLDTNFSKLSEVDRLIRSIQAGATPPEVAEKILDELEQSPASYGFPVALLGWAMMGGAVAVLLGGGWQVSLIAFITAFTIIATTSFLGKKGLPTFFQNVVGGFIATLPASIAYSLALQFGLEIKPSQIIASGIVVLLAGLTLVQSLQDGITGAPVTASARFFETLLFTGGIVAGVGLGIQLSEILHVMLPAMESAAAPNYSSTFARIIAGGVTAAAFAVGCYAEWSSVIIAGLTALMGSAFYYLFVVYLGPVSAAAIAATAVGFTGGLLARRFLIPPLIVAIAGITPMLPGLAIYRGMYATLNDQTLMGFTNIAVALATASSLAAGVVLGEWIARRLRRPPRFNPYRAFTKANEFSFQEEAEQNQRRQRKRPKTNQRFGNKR

SMILES: O=C(O)[C@@H]1CCCN1 [L-proline]
- Thr-Pro peptide uptake and amino acid export assay, deletion vs complementation,: These results further verify the function of Cgl2622 as an L-proline exporter.
